Assay results published in patent US12668594B2, “TYK2 inhibitors and uses thereof” (Sudo Biosciences Limited, priority 2020, dated 2026).

Columns and labels:
[1] = target: T1, TYK2 (Homo sapiens, UniProt P29597); experiment: HEK-Blue IL-23 reporter assay (SEAP) for TYK2 pseudokinase inhibition; format: cell-based; parameters: HEK-Blue™ IL-23 and IFNα/β cells with a stably-integrated cytokine receptor and STAT3 or STAT1; host or cells: HEK-Blue IL-23 / HEK-Blue IFNα/β cells (HEK293 background); conditions: HEK-Blue IL-23 cells, 10 ng/mL human recombinant IL-23, SEAP reporter; read-out: IL23 IC50
In short: (§1)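 HEK-Blue cells carrying cytokine receptor and STAT3 or STAT1 SEAP reporter, pretreated 60 min with compound, then stimulated with 10 ng/mL IL-23 (22–24 h) or 1 ng/mL IFNα (16–18 h). SEAP read with QUANTI-Blue; IC50 by non-linear regression versus no-inhibitor and unstimulated controls.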

[2] = target: T1, TYK2; experiment: HEK-Blue IFNα/β reporter assay (SEAP) for TYK2 pseudokinase inhibition; format: cell-based; conditions: HEK-Blue IFNα/β cells, 1 ng/mL human recombinant IFNα
In short: as §1

T1 sequence (P29597 whole entry): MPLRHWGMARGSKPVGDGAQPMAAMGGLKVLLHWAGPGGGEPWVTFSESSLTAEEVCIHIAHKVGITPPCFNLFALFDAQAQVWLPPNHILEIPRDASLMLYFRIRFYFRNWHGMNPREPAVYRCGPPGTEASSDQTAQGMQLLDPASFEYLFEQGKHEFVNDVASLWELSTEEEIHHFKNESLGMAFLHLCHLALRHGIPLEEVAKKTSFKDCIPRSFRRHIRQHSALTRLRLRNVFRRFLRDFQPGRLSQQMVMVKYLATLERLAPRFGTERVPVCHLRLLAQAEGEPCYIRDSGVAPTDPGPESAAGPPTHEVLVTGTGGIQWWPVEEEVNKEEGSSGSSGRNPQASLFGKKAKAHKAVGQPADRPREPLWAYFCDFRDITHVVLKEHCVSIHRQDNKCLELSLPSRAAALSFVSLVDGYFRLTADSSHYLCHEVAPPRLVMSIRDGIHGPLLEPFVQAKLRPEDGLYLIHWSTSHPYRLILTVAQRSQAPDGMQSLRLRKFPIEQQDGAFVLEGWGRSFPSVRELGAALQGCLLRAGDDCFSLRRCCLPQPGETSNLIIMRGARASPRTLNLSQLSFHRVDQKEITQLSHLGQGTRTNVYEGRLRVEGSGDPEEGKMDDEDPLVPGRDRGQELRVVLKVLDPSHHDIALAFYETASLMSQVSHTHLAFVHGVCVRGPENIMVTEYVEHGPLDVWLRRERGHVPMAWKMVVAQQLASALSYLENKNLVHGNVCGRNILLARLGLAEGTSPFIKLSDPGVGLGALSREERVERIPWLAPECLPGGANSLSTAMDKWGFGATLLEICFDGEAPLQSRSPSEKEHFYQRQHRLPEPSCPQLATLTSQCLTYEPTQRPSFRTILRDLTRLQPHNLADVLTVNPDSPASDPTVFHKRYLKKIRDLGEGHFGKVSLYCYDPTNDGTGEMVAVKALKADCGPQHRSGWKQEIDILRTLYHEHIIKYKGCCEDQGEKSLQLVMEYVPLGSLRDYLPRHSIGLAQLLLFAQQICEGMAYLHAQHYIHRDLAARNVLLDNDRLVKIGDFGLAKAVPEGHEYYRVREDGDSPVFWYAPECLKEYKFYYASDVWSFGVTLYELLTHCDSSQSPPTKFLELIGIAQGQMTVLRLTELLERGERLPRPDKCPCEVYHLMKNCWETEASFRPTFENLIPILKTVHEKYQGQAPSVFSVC

Compound	IC50 [1]	IC50 [2]
Cc1cc(Nc2cc3c(cn2)c(=O)[nH]n3-c2ccc(Cl)c(Cl)c2)nc(C)n1 [Compound I-85, 1-(3,4-dichlorophenyl)-6-((2,6-dimethylpyrimidin-4-yl)amino)-1,2-dihydro-3H-pyrazolo[4,3-c]pyridin-3-one]	> 90 µM	> 90 µM
O=c1[nH]n(-c2ccc(Cl)c(Cl)c2)c2cc(Nc3ccc(F)cn3)ncc12 [Compound I-86, 1-(3,4-dichlorophenyl)-6-((5-fluoropyridin-2-yl)amino)-1,2-dihydro-3H-pyrazolo[4,3-c]pyridin-3-one]	> 90 µM	> 90 µM
COc1c(F)cccc1-n1[nH]c(=O)c2cnc(Nc3ccc(F)cn3)cc21 [Compound I-100, 1-(3-fluoro-2-methoxyphenyl)-6-((5-fluoropyridin-2-yl)amino)-1,2-dihydro-3H-pyrazolo[4,3-c]pyridin-3-one]	> 90 µM	> 90 µM
COc1c(Cl)cccc1-n1[nH]c(=O)c2cnc(Nc3cc(C)nc(C)n3)cc21 [Compound I-101, 1-(3-chloro-2-methoxyphenyl)-6-((2,6-dimethylpyrimidin-4-yl)amino)-1,2-dihydro-3H-pyrazolo[4,3-c]pyridin-3-one]	> 90 µM	> 90 µM
COc1c(Cl)cccc1-n1[nH]c(=O)c2cnc(Nc3ccc(F)cn3)cc21 [Compound I-102, 1-(3-chloro-2-methoxyphenyl)-6-((5-fluoropyridin-2-yl)amino)-1,2-dihydro-3H-pyrazolo[4,3-c]pyridin-3-one]	10 to 30 µM	> 90 µM
COc1c(-n2[nH]c(=O)c3cnc(Nc4cc(C)nc(C)n4)cc32)cccc1C(F)(F)F [Compound I-103, 6-((2,6-dimethylpyrimidin-4-yl)amino)-1-(2-methoxy-3-(trifluoromethyl)phenyl)-1,2-dihydro-3H-pyrazolo[4,3-c]pyridin-3-one]	> 90 µM	> 90 µM
COc1c(-n2[nH]c(=O)c3cnc(Nc4ccc(F)cn4)cc32)cccc1C(F)(F)F [Compound I-104, 6-((5-fluoropyridin-2-yl)amino)-1-(2-methoxy-3-(trifluoromethyl)phenyl)-1,2-dihydro-3H-pyrazolo[4,3-c]pyridin-3-one]	> 90 µM	> 90 µM
CCc1ccccc1-n1[nH]c(=O)c2cnc(Nc3ccc(F)cn3)cc21 [Compound I-109, 1-(2-ethylphenyl)-6-((5-fluoropyridin-2-yl)amino)-1,2-dihydro-3H-pyrazolo[4,3-c]pyridin-3-one]	> 90 µM	> 90 µM
CCc1ccccc1-n1[nH]c(=O)c2cnc(NC(=O)C3CC3)cc21 [Compound I-110, N-(1-(2-ethylphenyl)-3-oxo-2,3-dihydro-1H-pyrazolo[4,3-c]pyridin-6-yl)cyclopropanecarboxamide]	> 90 µM	> 90 µM
Cc1cc(Nc2cc3c(cn2)c(=O)[nH]n3-c2ccccc2F)nc(C)n1 [Compound I-111, 6-((2,6-dimethylpyrimidin-4-yl)amino)-1-(2-fluorophenyl)-1,2-dihydro-3H-pyrazolo[4,3-c]pyridin-3-one]	< 10 µM	< 10 µM
O=c1[nH]n(-c2ccccc2F)c2cc(Nc3ccc(F)cn3)ncc12 [Compound I-112, 1-(2-fluorophenyl)-6-((5-fluoropyridin-2-yl)amino)-1,2-dihydro-3H-pyrazolo[4,3-c]pyridin-3-one]	< 10 µM	< 10 µM
Cc1cc(Nc2cc3c(cn2)c(=O)[nH]n3-c2cccc(F)c2F)nc(C)n1 [Compound I-113, 1-(2,3-difluorophenyl)-6-((2,6-dimethylpyrimidin-4-yl)amino)-1,2-dihydro-3H-pyrazolo[4,3-c]pyridin-3-one]	< 10 µM	< 10 µM
Cc1cc(Nc2cc3c(cn2)c(=O)[nH]n3C2CCCC2)nc(C)n1 [Compound I-114, 1-cyclopentyl-6-((2,6-dimethylpyrimidin-4-yl)amino)-1,2-dihydro-3H-pyrazolo[4,3-c]pyridin-3-one]	< 10 µM	< 10 µM
O=c1[nH]n(C2CCCC2)c2cc(Nc3ccc(F)cn3)ncc12 [Compound I-115, 1-cyclopentyl-6-((5-fluoropyridin-2-yl)amino)-1,2-dihydro-3H-pyrazolo[4,3-c]pyridin-3-one]	< 10 µM	< 10 µM
COc1cccc(-n2[nH]c(=O)c3c(N)nc(Nc4cc(C)nc(C)n4)cc32)c1 [Compound I-116, 4-amino-6-((2,6-dimethylpyrimidin-4-yl)amino)-1-(3-methoxyphenyl)-1,2-dihydro-3H-pyrazolo[4,3-c]pyridin-3-one]	< 10 µM	30 to 90 µM

Results, then the molecule that gave them:

IC50 [1]	IC50 [2]	Compound
< 10 µM	10 to 30 µM	COc1cc(-n2[nH]c(=O)c3cnc(NC(=O)C4CC4)cc32)ccc1C#N [Compound I-82, N-(1-(4-cyano-3-methoxyphenyl)-3-oxo-2,3-dihydro-1H-pyrazolo[4,3-c]pyridin-6-yl)cyclopropanecarboxamide]
< 10 µM	< 10 µM	COc1cc(-n2[nH]c(=O)c3cnc(Nc4cc(C)nc(C)n4)cc32)ccn1 [Compound I-83, 6-((2,6-dimethylpyrimidin-4-yl)amino)-1-(2-methoxypyridin-4-yl)-1,2-dihydro-3H-pyrazolo[4,3-c]pyridin-3-one]
< 10 µM	< 10 µM	COc1cc(-n2[nH]c(=O)c3cnc(Nc4ccc(F)cn4)cc32)ccn1 [Compound I-84, 6-((5-fluoropyridin-2-yl)amino)-1-(2-methoxypyridin-4-yl)-1,2-dihydro-3H-pyrazolo[4,3-c]pyridin-3-one]
< 10 µM	> 90 µM	Cc1cc(Nc2cc3c(cn2)c(=O)[nH]n3-c2ccc(C#N)c(Cl)c2)nc(C)n1 [Compound I-87, 2-chloro-4-(6-((2,6-dimethylpyrimidin-4-yl)amino)-3-oxo-2,3-dihydro-1H-pyrazolo[4,3-c]pyridin-1-yl)benzonitrile]
< 10 µM	< 10 µM	N#Cc1ccc(-n2[nH]c(=O)c3cnc(NC(=O)C4CC4)cc32)cc1Cl [Compound I-89, N-(1-(3-chloro-4-cyanophenyl)-3-oxo-2,3-dihydro-1H-pyrazolo[4,3-c]pyridin-6-yl)cyclopropanecarboxamide]
< 10 µM	< 10 µM	Cc1cc(Nc2cc3c(cn2)c(=O)[nH]n3-c2ccc(C#N)c(F)c2)nc(C)n1 [Compound I-90, 4-(6-((2,6-dimethylpyrimidin-4-yl)amino)-3-oxo-2,3-dihydro-1H-pyrazolo[4,3-c]pyridin-1-yl)-2-fluorobenzonitrile]
< 10 µM	< 10 µM	Cc1cc(Nc2cc3c(cn2)c(=O)[nH]n3-c2ccc(C#N)c(C(F)(F)F)c2)nc(C)n1 [Compound I-91, 4-(6-((2,6-dimethylpyrimidin-4-yl)amino)-3-oxo-2,3-dihydro-1H-pyrazolo[4,3-c]pyridin-1-yl)-2-(trifluoromethyl)benzonitrile]
< 10 µM	< 10 µM	N#Cc1ccc(-n2[nH]c(=O)c3cnc(Nc4ccc(F)cn4)cc32)cc1C(F)(F)F [Compound I-92, 4-(6-((5-fluoropyridin-2-yl)amino)-3-oxo-2,3-dihydro-1H-pyrazolo[4,3-c]pyridin-1-yl)-2-(trifluoromethyl)benzonitrile]
< 10 µM	< 10 µM	N#Cc1ccc(-n2[nH]c(=O)c3cnc(NC(=O)C4CC4)cc32)cc1C(F)(F)F [Compound I-93, N-(1-(4-cyano-3-(trifluoromethyl)phenyl)-3-oxo-2,3-dihydro-1H-pyrazolo[4,3-c]pyridin-6-yl)cyclopropanecarboxamide]
< 10 µM	> 90 µM	Cc1cc(Nc2cc3c(cn2)c(=O)[nH]n3-c2cc(Cl)cc(Cl)c2)nc(C)n1 [Compound I-96, 1-(3,5-dichlorophenyl)-6-((2,6-dimethylpyrimidin-4-yl)amino)-1,2-dihydro-3H-pyrazolo[4,3-c]pyridin-3-one]
< 10 µM	> 90 µM	O=C(Nc1cc2c(cn1)c(=O)[nH]n2-c1cc(Cl)cc(Cl)c1)C1CC1 [Compound I-98, N-(1-(3,5-dichlorophenyl)-3-oxo-2,3-dihydro-1H-pyrazolo[4,3-c]pyridin-6-yl)cyclopropanecarboxamide]
< 10 µM	10 to 30 µM	COc1c(F)cccc1-n1[nH]c(=O)c2cnc(Nc3cc(C)nc(C)n3)cc21 [Compound I-99, 6-((2,6-dimethylpyrimidin-4-yl)amino)-1-(3-fluoro-2-methoxyphenyl)-1,2-dihydro-3H-pyrazolo[4,3-c]pyridin-3-one]
< 10 µM	< 10 µM	Cc1cc(Nc2cc3c(cn2)c(=O)[nH]n3-c2ccccc2C)nc(C)n1 [Compound I-105, 6-((2,6-dimethylpyrimidin-4-yl)amino)-1-(o-tolyl)-1,2-dihydro-3H-pyrazolo[4,3-c]pyridin-3-one]
< 10 µM	30 to 90 µM	Cc1ccccc1-n1[nH]c(=O)c2cnc(Nc3ccc(F)cn3)cc21 [Compound I-106, 6-((5-fluoropyridin-2-yl)amino)-1-(0-tolyl)-1,2-dihydro-3H-pyrazolo[4,3-c]pyridin-3-one]
< 10 µM	< 10 µM	Cc1ccccc1-n1[nH]c(=O)c2cnc(NC(=O)C3CC3)cc21 [Compound I-107, N-(3-oxo-1-(o-tolyl)-2,3-dihydro-1H-pyrazolo[4,3-c]pyridin-6-yl)cyclopropanecarboxamide]
< 10 µM	10 to 30 µM	CCc1ccccc1-n1[nH]c(=O)c2cnc(Nc3cc(C)nc(C)n3)cc21 [Compound I-108, 6-((2,6-dimethylpyrimidin-4-yl)amino)-1-(2-ethylphenyl)-1,2-dihydro-3H-pyrazolo[4,3-c]pyridin-3-one]
